From PMC8840081, “Phenylalanine-Based AMPA Receptor Antagonist as the Anticonvulsant Agent with Neuroprotective Activity—In Vitro and In Vivo Studies” (Molecules, 2022)

system: IMR-32 neuroblastoma cells; assay: neuroprotection against 6-OHDA-induced LDH release; type: cell-based, human; details: IMR-32, compound 50 µM, 1 h pretreatment, 200 µM 6-OHDA, 24 h
Method: (§1) All cell culture protocols and assay conditions were applied as we reported previously. SH-SY5Y (ATCC® CRL-2266™) cell line was purchased from ATCC (Manassas, VA, USA). IMR-32 (ATCC® CCL-127™) cell line was kindly provided by the Department of Oncogenomics, Academisch Medisch Centrum, Amsterdam, Holland. Before each test SH-SY5Y or IMR-32 cells were seeded in 96-well plates with transparent bottom at a concentration of 2.5 × 10^4 cells/well in 100 μL of respective cell culture medium and cultured for 24 h to reach 70% confluence. • Cell Viability
(§2) CytoTox-ONE™ Homogeneous Membrane Integrity Assay, which based on the LDH release, was purchased from Promega (Madison, WI, USA). SH-SY5Y or IMR-32 cells were seeded in 96-well white plates with transparent bottom. For neuroprotective studies, the cells were preincubated first for 1 h with compound 1, 8 or reference antioxidants AA, TX (all at the concentration of 50 μM) and next the neurotoxin 6-OHDA (Sigma-Aldrich, Inc., St. Louis, MO, USA) was added at final concentration of 50 μM (SH-SY5Y assay) or 200 µM (IMR-32 assay). After 24 h of incubation, the CytoTox-ONE™ was added to each well and the cells were incubated next for 10 min at room temperature. The fluorescence was measured using a microplate reader EnSpire (PerkinElmer, Waltham, MA, USA) with an excitation wavelength of 560 nm and an emission wavelength of 590 nm. All measurements were performed in triplicate and results are shown as mean ± SD. The similar studies were also performed with SH-SY5Y cells injured by 100 μM of 6-OHDA (Figure S1, Supporting Materials). • ROS Assay

| Compound | 6-OHDA-induced release of LDH (neuroprotection) |
| --- | --- |
| Cc1c(C)c2c(c(C)c1O)CCC(C)(C(=O)O)O2 (centres unmarked) [TX, Trolox, reference compound] | no statistically significant neuroprotective effect |
| O=C1O[C@H]([C@@H](O)CO)C(O)=C1O [AA, ascorbic acid, reference compound] | no statistically significant neuroprotective effect |

system: SH-SY5Y neuroblastoma cells; assay: neuroprotection against 6-OHDA-induced LDH release; type: cell-based, human; details: compound 50 µM, 100 µM 6-OHDA
Method: as §1, §2

| Compound | 6-OHDA-induced release of LDH (neuroprotection) |
| --- | --- |
| Cc1c(C)c2c(c(C)c1O)CCC(C)(C(=O)O)O2 (centres unmarked) [TX, Trolox, reference compound] | neuroprotective effect was not observed |
| O=C1O[C@H]([C@@H](O)CO)C(O)=C1O [AA, ascorbic acid, reference compound] | neuroprotective effect was not observed |

same assay, conditions: compound 50 µM, 1 h pretreatment, 50 µM 6-OHDA, 24 h

| Compound | 6-OHDA-induced release of LDH (neuroprotection) |
| --- | --- |
| Cc1c(C)c2c(c(C)c1O)CCC(C)(C(=O)O)O2 (centres unmarked) [TX, Trolox, reference compound] | no statistically significant neuroprotective effect |
| O=C1O[C@H]([C@@H](O)CO)C(O)=C1O [AA, ascorbic acid, reference compound] | no statistically significant neuroprotective effect |

system: not listed separately; assay: ferric reducing antioxidant power (FRAP) assay; details: % of ascorbic acid activity; compounds and AA at 1 mM
Method: The total antioxidant potential of aryl-substituted phenylalanine derivatives was determined using FRAP assay. The FRAP reagent was prepared first by mixing acetate buffer (300 mM, pH 3.6), a solution of 10 mM TPTZ (2,4,6-tripyridyl-s-triazine, Sigma-Aldrich, Inc., St. Louis, MO, USA) in 40 mM HCl and 20 mM of iron (III) chloride hexahydrate (FeCl3 × 6H2O, Chempur, Piekary Śląskie, Poland) at 10:1:1 (v/v/v). The FRAP reagent (190 μL) and 1 mM of tested compound (10 μL) was added next to each well, mixed and incubated for 30 min. The absorbance was measured using a microplate reader EnSpire (PerkinElmer, Waltham, MA USA) at 593 nm. AA (1 mM, AMARA, Kraków, Poland) was used as the reference antioxidant. The results were expressed as % of ascorbic acid activity (%AAA). Analyses were performed in triplicate. • ORAC-FL

| Compound | FRAP (%AAA) |
| --- | --- |
| Nc1c(-c2cccc(O)c2)cc(CC(N)C(=O)O)cc1[N+](=O)[O-] (centres unmarked) [Compound 12] | 24.93 |
| NC(Cc1cc(Cl)c(Cl)c(-c2ccc(O)cc2)c1)C(=O)O (centres unmarked) [Compound 15] | 13.70 |
| NC(Cc1cccc(-c2cccc(O)c2)c1)C(=O)O (centres unmarked) [Compound 19] | 4.94 |
| NC(Cc1ccc(Cl)c(-c2cccc(O)c2)c1)C(=O)O (centres unmarked) [Compound 13] | 24.08 |
| NC(Cc1cc(-c2cncc(O)c2)c(Cl)c([N+](=O)[O-])c1)C(=O)O (centres unmarked) [Compound 2] | 691.21 |
| NC(Cc1cc(-c2cccc(O)c2)cc([N+](=O)[O-])c1)C(=O)O (centres unmarked) [Compound 9] | 43.43 |
| NC(Cc1cc(-c2ccc(O)cc2)c(Cl)c([N+](=O)[O-])c1)C(=O)O (centres unmarked) [Compound 21] | 2.76 |
| NC(Cc1cc(-c2ccc(O)cc2)cc([N+](=O)[O-])c1)C(=O)O (centres unmarked) [Compound 5] | 96.32 |
| NC(Cc1ccc([N+](=O)[O-])c(-c2cccc(O)c2)c1)C(=O)O (centres unmarked) [Compound 10] | 32.04 |
| Nc1c(Cl)cc(CC(N)C(=O)O)cc1-c1cccc(O)c1 (centres unmarked) [Compound 14] | 23.80 |
| NC(Cc1cc(Cl)c(Cl)c(-c2ccccc2O)c1)C(=O)O (centres unmarked) [Compound 16] | 10.32 |
| NC(Cc1cc(Cl)c(Cl)c(-c2ccc(O)c(O)c2)c1)C(=O)O (centres unmarked) [Compound 4] | 177.23 |
| COc1c(Cl)cc(CC(N)C(=O)O)cc1-c1cccc(O)c1 (centres unmarked) [Compound 22] | 2.76 |
| NC(Cc1cc(Cl)cc(-c2ccc(O)cc2)c1)C(=O)O (centres unmarked) [Compound 7] | 49.39 |
| NC(Cc1ccc([N+](=O)[O-])c(-c2ccc(O)cc2)c1)C(=O)O (centres unmarked) [Compound 20] | 4.41 |
| Nc1ccc(CC(N)C(=O)O)cc1-c1cccc(O)c1 (centres unmarked) [Compound 6] | 67.35 |
| NC(Cc1cc(Cl)c(O)c(-c2cccc(O)c2)c1)C(=O)O (centres unmarked) [Compound 3] | 311.56 |
| NC(Cc1ccc(Cl)c(-c2ccc(O)cc2)c1)C(=O)O (centres unmarked) [Compound 17] | 9.13 |
| NC(Cc1cc(Cl)c(Cl)c(-c2cc(O)cc(O)c2)c1)C(=O)O (centres unmarked) [Compound 11] | 28.90 |
| NC(Cc1cc(-c2cccc(O)c2)c(Cl)c([N+](=O)[O-])c1)C(=O)O (centres unmarked) [Compound 18] | 6.29 |

system: native AMPA receptors; assay: not given; details: cited from earlier work

| Compound | selectivity over NMDA and KA receptors |
| --- | --- |
| NC(Cc1cc(-c2cncc(O)c2)c(Cl)c([N+](=O)[O-])c1)C(=O)O (centres unmarked) [Compound 2] | high selectivity |
| NC(Cc1cc(-c2cccc(O)c2)c(Cl)c([N+](=O)[O-])c1)C(=O)O (centres unmarked) [Compound 18] | high selectivity |

same assay, conditions: native AMPA receptors, rat brain membranes, mean of three experiments; read-out: [3H]AMPA IC50 (footnote 4: IC50 values); cited from earlier work

| Compound | IC50 [µM] |
| --- | --- |
| NC(Cc1cc(Cl)c(Cl)c(-c2ccc(O)cc2)c1)C(=O)O (centres unmarked) [Compound 15] | 33 |
| NC(Cc1cccc(-c2cccc(O)c2)c1)C(=O)O (centres unmarked) [Compound 19] | 9.9 |
| NC(Cc1cc(Cl)c(Cl)c(-c2ccccc2O)c1)C(=O)O (centres unmarked) [Compound 16] | 85 |
| NC(Cc1cc(Cl)c(Cl)c(-c2ccc(O)c(O)c2)c1)C(=O)O (centres unmarked) [Compound 4] | 12 |
| NC(Cc1cc(Cl)c(Cl)c(-c2cc(O)cc(O)c2)c1)C(=O)O (centres unmarked) [Compound 11] | 16 |

same assay, conditions: native AMPA receptors, rat brain membranes, mean of three experiments; read-out: [3H]AMPA Ki; cited from earlier work

| Compound | Ki [µM] |
| --- | --- |
| Nc1c(-c2cccc(O)c2)cc(CC(N)C(=O)O)cc1[N+](=O)[O-] (centres unmarked) [Compound 12] | 14 |
| NC(Cc1ccc(Cl)c(-c2cccc(O)c2)c1)C(=O)O (centres unmarked) [Compound 13] | 9.2 |
| NC(Cc1cc(-c2cncc(O)c2)c(Cl)c([N+](=O)[O-])c1)C(=O)O (centres unmarked) [Compound 2] | 2 |
| NC(Cc1cc(-c2cccc(O)c2)cc([N+](=O)[O-])c1)C(=O)O (centres unmarked) [Compound 9] | 8.2 |
| NC(Cc1cc(-c2ccc(O)cc2)c(Cl)c([N+](=O)[O-])c1)C(=O)O (centres unmarked) [Compound 21] | 23 |
| NC(Cc1cc(-c2ccc(O)cc2)cc([N+](=O)[O-])c1)C(=O)O (centres unmarked) [Compound 5] | 21 |
| NC(Cc1ccc([N+](=O)[O-])c(-c2cccc(O)c2)c1)C(=O)O (centres unmarked) [Compound 10] | 21 |
| Nc1c(Cl)cc(CC(N)C(=O)O)cc1-c1cccc(O)c1 (centres unmarked) [Compound 14] | 10 |
| COc1c(Cl)cc(CC(N)C(=O)O)cc1-c1cccc(O)c1 (centres unmarked) [Compound 22] | > 100 |
| NC(Cc1cc(Cl)cc(-c2ccc(O)cc2)c1)C(=O)O (centres unmarked) [Compound 7] | 46 |
| NC(Cc1ccc([N+](=O)[O-])c(-c2ccc(O)cc2)c1)C(=O)O (centres unmarked) [Compound 20] | 64 |
| Nc1ccc(CC(N)C(=O)O)cc1-c1cccc(O)c1 (centres unmarked) [Compound 6] | 9.1 |
| NC(Cc1cc(Cl)c(O)c(-c2cccc(O)c2)c1)C(=O)O (centres unmarked) [Compound 3] | 7.9 |
| NC(Cc1ccc(Cl)c(-c2ccc(O)cc2)c1)C(=O)O (centres unmarked) [Compound 17] | 65 |
| NC(Cc1cc(-c2cccc(O)c2)c(Cl)c([N+](=O)[O-])c1)C(=O)O (centres unmarked) [Compound 18] | 3.1 |

system: not listed separately; assay: oxygen radical absorbance capacity fluorescent (ORAC-FL) assay; details: Trolox equivalent, calculated at 5 µM of compounds and Trolox
Method: The ORAC-FL was performed according to procedure described in the literature. The reagents used in this assay, TX, fluorescein and 2,2′-azobis(2-amidinopropane) dihydrochloride (AAPH), were purchased from Sigma-Aldrich, Inc., St. Louis, MO, USA. The prepared ORAC-FL reagent consisted of 0.3 μM of fluorescein and 100 µM of AAPH dissolved in PBS buffer. The compounds and the reference antioxidant TX were tested at the concentration 2.5 µM and the results were compared to the blank in which no antioxidant was present. The assays were performed in black 96-well plates. The fluorescence readings were taken by a microplate reader EnSpire (PerkinElmer, Waltham, MA, USA) every minute for a duration of 240 min. The excitation wavelength was 485 nm and the emission wavelength was 520 nm. The area under the fluorescence decay curve (AUC) was calculated next by GraphPad Prism™ software (version 5.01, San Diego, CA, USA). All measurements were performed in triplicate. The TX equivalent (TE) was calculated next using the following Equation (1):TE = [(AUCsample − AUCblank)/(AUCTX − AUCblank)] × [CTX/Csample](1)

| Compound | ORAC (TE) |
| --- | --- |
| Nc1c(-c2cccc(O)c2)cc(CC(N)C(=O)O)cc1[N+](=O)[O-] (centres unmarked) [Compound 12] | 4.27 |
| NC(Cc1cc(Cl)c(Cl)c(-c2ccc(O)cc2)c1)C(=O)O (centres unmarked) [Compound 15] | 1.45 |
| NC(Cc1cccc(-c2cccc(O)c2)c1)C(=O)O (centres unmarked) [Compound 19] | 1.96 |
| NC(Cc1ccc(Cl)c(-c2cccc(O)c2)c1)C(=O)O (centres unmarked) [Compound 13] | 2.86 |
| NC(Cc1cc(-c2cncc(O)c2)c(Cl)c([N+](=O)[O-])c1)C(=O)O (centres unmarked) [Compound 2] | 3.15 |
| NC(Cc1cc(-c2cccc(O)c2)cc([N+](=O)[O-])c1)C(=O)O (centres unmarked) [Compound 9] | 4.67 |
| NC(Cc1cc(-c2ccc(O)cc2)c(Cl)c([N+](=O)[O-])c1)C(=O)O (centres unmarked) [Compound 21] | 2.56 |
| NC(Cc1cc(-c2ccc(O)cc2)cc([N+](=O)[O-])c1)C(=O)O (centres unmarked) [Compound 5] | 4.32 |
| NC(Cc1ccc([N+](=O)[O-])c(-c2cccc(O)c2)c1)C(=O)O (centres unmarked) [Compound 10] | 1.43 |
| Nc1c(Cl)cc(CC(N)C(=O)O)cc1-c1cccc(O)c1 (centres unmarked) [Compound 14] | 4.75 |
| NC(Cc1cc(Cl)c(Cl)c(-c2ccccc2O)c1)C(=O)O (centres unmarked) [Compound 16] | 1.54 |
| NC(Cc1cc(Cl)c(Cl)c(-c2ccc(O)c(O)c2)c1)C(=O)O (centres unmarked) [Compound 4] | 4.02 |
| COc1c(Cl)cc(CC(N)C(=O)O)cc1-c1cccc(O)c1 (centres unmarked) [Compound 22] | 1.38 |
| NC(Cc1cc(Cl)cc(-c2ccc(O)cc2)c1)C(=O)O (centres unmarked) [Compound 7] | 3.29 |
| NC(Cc1ccc([N+](=O)[O-])c(-c2ccc(O)cc2)c1)C(=O)O (centres unmarked) [Compound 20] | 1.62 |
| Nc1ccc(CC(N)C(=O)O)cc1-c1cccc(O)c1 (centres unmarked) [Compound 6] | 6.09 |
| NC(Cc1cc(Cl)c(O)c(-c2cccc(O)c2)c1)C(=O)O (centres unmarked) [Compound 3] | 4.61 |
| NC(Cc1ccc(Cl)c(-c2ccc(O)cc2)c1)C(=O)O (centres unmarked) [Compound 17] | 1.96 |
| NC(Cc1cc(Cl)c(Cl)c(-c2cc(O)cc(O)c2)c1)C(=O)O (centres unmarked) [Compound 11] | 4.18 |
| NC(Cc1cc(-c2cccc(O)c2)c(Cl)c([N+](=O)[O-])c1)C(=O)O (centres unmarked) [Compound 18] | 1.34 |
